# Results: ChEMBL document CHEMBL5291721, “A preclinical secondary pharmacology resource illuminates target-adverse drug reaction associations of marketed drugs” (Nat Commun, 2023)
# Several values for one entry are separate records, joined by “and”; a condition that tells them apart may be missing. Equal values may be shown once.
# Legend:
# Androgen receptor = target: T1, Androgen receptor (Rattus norvegicus, UniProt P15207); type: functional
# T1 sequence (P15207 whole entry): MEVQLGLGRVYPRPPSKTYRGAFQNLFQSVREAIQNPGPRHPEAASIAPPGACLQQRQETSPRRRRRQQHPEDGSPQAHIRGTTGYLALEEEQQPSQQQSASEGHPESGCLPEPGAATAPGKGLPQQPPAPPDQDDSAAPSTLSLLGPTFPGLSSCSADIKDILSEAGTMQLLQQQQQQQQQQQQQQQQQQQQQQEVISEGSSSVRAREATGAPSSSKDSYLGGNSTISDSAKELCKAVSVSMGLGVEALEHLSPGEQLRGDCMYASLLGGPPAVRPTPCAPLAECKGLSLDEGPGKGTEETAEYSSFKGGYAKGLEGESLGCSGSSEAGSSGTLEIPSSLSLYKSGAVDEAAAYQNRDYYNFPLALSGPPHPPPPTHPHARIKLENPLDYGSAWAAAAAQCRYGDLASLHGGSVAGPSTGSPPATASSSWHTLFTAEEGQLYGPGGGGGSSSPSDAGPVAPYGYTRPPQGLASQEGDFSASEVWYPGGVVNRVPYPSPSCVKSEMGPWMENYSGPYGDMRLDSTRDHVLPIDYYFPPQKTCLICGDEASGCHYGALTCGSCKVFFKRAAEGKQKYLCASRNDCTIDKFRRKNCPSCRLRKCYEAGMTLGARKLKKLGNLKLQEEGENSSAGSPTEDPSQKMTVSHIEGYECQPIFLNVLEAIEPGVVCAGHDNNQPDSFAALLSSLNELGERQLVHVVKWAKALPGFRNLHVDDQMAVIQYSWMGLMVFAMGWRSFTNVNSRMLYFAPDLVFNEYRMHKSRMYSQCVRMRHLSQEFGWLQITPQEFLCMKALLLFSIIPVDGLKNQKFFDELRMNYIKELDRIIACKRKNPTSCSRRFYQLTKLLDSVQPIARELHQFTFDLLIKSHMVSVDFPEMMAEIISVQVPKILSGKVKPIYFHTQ
# [1] = target: T2, Alpha-1A adrenergic receptor (Homo sapiens, UniProt P35348)
# T2 sequence (P35348 whole entry): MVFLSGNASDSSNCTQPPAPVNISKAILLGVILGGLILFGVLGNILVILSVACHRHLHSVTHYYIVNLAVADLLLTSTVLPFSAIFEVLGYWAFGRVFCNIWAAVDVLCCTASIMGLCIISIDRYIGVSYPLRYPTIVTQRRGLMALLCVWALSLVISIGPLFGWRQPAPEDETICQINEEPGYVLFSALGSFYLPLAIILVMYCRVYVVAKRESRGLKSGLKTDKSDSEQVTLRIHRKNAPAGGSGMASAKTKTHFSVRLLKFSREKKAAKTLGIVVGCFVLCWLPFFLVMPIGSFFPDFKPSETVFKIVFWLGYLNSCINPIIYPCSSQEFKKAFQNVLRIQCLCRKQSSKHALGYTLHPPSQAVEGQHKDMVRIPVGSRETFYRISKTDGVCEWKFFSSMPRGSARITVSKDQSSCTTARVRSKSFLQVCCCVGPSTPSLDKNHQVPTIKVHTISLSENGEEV
# Mu-type opioid receptor = Mu-type opioid receptor (Homo sapiens, UniProt P35372)
# [2] = target: Neurotensin receptor type 1 (Homo sapiens, UniProt P30989)
# [3] = target: Voltage-dependent N-type calcium channel subunit alpha-1B (Rattus norvegicus, UniProt Q02294); type: functional
# Histamine H2 receptor = Histamine H2 receptor (Homo sapiens, UniProt P25021)
# Melanocortin receptor 4 = Melanocortin receptor 4 (Homo sapiens, UniProt P32245)
# [4] = target: T3, Gamma-aminobutyric acid receptor subunit alpha-1/alpha-2/beta-2/gamma-2 (Homo sapiens, UniProt P14867+P18507+P47869+P47870); type: functional, cell-based
# [5] = target: T3, Gamma-aminobutyric acid receptor subunit alpha-1/alpha-2/beta-2/gamma-2; type: functional, cell-based; remark: listed apart in the source
# [6] = target: T4, Peroxisome proliferator-activated receptor gamma (Homo sapiens, UniProt P37231); type: functional
# T4 sequence (P37231 whole entry): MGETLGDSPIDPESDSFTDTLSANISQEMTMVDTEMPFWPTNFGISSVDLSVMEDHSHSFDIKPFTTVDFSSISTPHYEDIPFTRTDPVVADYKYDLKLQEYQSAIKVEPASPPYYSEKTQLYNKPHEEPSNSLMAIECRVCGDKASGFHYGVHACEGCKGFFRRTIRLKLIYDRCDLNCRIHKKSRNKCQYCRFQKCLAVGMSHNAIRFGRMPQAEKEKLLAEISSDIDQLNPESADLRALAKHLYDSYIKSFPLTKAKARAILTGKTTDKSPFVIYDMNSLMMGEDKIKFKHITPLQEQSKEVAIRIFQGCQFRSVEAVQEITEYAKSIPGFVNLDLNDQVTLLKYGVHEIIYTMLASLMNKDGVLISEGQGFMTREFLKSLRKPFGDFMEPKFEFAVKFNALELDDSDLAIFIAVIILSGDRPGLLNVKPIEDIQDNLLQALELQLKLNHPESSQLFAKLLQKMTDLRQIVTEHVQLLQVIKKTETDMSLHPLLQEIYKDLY
# [7] = target: T4, Peroxisome proliferator-activated receptor gamma; type: functional; remark: listed apart in the source
# D(1A) dopamine receptor = D(1A) dopamine receptor (Homo sapiens, UniProt P21728)
# Note: assay procedure not described here.
# Sequence of Neurotensin receptor type 1 (P30989 whole entry): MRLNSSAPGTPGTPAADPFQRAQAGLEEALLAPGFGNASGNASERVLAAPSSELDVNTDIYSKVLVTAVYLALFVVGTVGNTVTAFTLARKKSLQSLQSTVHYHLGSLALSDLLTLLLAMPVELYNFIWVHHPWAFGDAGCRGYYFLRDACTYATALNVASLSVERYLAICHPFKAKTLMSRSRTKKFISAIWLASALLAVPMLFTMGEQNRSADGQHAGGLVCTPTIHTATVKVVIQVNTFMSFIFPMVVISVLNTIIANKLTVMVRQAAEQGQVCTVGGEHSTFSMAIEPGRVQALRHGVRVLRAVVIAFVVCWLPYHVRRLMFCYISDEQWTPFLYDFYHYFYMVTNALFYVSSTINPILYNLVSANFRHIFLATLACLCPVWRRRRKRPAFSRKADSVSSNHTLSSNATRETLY
# Sequence of Mu-type opioid receptor (P35372 whole entry): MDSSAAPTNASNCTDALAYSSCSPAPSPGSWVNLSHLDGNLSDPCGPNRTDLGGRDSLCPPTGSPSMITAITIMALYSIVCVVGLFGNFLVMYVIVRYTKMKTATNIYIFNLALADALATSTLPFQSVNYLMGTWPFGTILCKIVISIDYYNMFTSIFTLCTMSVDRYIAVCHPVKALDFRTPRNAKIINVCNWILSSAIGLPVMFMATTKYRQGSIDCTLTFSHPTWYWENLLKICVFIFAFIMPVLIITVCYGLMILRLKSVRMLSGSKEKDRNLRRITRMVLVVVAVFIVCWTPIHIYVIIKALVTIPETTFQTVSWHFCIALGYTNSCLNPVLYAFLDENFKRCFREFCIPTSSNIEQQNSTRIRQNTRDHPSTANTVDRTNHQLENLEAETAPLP
# T3 sequence (P14867 whole entry): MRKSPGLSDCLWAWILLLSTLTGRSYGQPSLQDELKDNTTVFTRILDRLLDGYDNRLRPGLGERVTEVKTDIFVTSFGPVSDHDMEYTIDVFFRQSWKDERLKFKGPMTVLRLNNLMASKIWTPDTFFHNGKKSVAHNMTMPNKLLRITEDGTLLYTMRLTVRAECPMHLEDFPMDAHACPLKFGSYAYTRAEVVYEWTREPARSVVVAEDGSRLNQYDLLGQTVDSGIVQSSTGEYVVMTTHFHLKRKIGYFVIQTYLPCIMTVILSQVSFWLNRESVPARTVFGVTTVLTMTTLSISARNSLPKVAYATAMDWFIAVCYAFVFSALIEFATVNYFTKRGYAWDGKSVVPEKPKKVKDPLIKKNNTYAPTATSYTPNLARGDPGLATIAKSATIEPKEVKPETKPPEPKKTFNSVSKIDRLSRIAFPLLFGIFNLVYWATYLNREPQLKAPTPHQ
# T3 sequence (P47870 whole entry): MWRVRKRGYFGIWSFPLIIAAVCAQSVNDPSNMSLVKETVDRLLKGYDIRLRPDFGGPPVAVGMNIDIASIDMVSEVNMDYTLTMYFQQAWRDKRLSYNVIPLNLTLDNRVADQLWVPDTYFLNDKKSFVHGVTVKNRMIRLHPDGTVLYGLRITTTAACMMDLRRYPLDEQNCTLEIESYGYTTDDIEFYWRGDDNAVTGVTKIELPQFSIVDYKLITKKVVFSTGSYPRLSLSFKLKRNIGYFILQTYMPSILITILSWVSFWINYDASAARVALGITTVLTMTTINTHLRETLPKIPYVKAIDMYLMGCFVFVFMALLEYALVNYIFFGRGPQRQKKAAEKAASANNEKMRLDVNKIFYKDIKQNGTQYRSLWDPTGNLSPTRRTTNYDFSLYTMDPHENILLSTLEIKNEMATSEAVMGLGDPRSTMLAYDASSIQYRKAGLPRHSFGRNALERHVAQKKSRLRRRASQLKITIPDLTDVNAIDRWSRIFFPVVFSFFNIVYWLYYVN
# T3 sequence (P18507 whole entry): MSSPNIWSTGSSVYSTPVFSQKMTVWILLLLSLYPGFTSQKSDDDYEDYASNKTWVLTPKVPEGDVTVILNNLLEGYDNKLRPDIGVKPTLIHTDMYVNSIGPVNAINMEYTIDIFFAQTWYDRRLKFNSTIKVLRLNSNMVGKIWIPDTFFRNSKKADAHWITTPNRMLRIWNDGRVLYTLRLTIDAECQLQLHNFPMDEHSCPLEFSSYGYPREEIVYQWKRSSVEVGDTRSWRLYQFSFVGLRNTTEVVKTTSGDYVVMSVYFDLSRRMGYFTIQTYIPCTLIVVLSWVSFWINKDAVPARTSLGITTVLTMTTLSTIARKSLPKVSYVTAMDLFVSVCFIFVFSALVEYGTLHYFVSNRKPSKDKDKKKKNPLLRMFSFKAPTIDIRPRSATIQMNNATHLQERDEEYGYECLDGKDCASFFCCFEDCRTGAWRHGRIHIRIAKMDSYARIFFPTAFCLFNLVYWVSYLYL
# T3 sequence (P47869 whole entry): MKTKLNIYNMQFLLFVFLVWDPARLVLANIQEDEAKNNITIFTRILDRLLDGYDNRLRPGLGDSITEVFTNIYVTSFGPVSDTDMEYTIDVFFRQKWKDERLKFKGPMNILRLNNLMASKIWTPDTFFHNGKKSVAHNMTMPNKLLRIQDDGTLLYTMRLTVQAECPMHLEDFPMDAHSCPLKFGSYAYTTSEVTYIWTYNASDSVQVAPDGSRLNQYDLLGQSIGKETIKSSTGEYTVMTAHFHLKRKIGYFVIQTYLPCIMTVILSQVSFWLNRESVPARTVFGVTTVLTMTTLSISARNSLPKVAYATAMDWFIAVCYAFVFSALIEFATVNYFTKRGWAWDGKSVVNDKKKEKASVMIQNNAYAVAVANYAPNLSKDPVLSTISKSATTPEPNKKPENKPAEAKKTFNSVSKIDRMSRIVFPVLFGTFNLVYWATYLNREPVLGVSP
# Sequence of Histamine H2 receptor (P25021 whole entry): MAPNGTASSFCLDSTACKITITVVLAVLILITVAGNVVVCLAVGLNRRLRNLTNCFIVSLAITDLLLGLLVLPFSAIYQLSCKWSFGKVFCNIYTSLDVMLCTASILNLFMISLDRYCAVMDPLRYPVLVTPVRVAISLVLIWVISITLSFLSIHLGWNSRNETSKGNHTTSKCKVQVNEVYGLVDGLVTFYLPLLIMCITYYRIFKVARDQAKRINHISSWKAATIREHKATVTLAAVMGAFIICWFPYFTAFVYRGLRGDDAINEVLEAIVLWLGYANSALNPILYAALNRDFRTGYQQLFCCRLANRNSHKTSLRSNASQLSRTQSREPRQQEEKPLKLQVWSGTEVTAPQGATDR
# Sequence of D(1A) dopamine receptor (P21728 whole entry): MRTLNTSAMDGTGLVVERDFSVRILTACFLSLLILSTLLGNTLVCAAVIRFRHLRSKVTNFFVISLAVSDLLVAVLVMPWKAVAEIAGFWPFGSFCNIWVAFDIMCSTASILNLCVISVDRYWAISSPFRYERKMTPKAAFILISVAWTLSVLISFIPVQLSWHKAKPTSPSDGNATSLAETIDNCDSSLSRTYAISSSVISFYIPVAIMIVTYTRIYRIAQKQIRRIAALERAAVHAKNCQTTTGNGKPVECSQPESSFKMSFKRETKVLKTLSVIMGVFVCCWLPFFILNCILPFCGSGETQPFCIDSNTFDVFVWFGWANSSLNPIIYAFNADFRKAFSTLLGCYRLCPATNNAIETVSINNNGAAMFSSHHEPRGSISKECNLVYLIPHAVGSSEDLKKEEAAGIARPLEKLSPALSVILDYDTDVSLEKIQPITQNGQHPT
# Sequence of Melanocortin receptor 4 (P32245 whole entry): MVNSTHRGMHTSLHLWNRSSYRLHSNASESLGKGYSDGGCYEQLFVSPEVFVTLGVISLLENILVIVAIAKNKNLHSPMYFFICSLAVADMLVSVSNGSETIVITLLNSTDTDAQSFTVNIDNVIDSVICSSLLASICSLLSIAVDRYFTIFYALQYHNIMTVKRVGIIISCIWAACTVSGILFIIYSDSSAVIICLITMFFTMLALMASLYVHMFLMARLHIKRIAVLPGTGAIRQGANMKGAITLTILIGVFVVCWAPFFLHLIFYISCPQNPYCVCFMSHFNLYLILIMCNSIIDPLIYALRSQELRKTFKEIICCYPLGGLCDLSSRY
compound,measurement,setting,value
N#Cc1ccccc1-c1cc(-c2ccccn2)cn(-c2ccccc2)c1=O,AC50,Androgen receptor,> 30 µM
COc1ccc(/C=C/C(=O)Nc2ccccc2C(=O)O)cc1OC,AC50,[1],18 µM
same,AC50,Mu-type opioid receptor,> 30 µM
same,AC50,Androgen receptor,> 30 µM
C=C[C@@]1(C)CC(=O)[C@]2(O)[C@@]3(C)[C@@H](O)CCC(C)(C)[C@@H]3[C@H](OC(=O)CCN(C)C)[C@H](OC(C)=O)[C@@]2(C)O1,AC50,Androgen receptor,> 30 µM
NCCCC(O)(P(=O)(O)O)P(=O)(O)O [ALENDRONIC ACID],AC50,[1],> 10 µM
same,AC50,[2],> 30 µM
same,AC50,[3],> 10 µM
same,AC50,Histamine H2 receptor,> 10 µM
same,AC50,Melanocortin receptor 4,> 30 µM
Nc1ccc(C(=O)O)c(O)c1 [AMINOSALICYLIC ACID],AC50,Androgen receptor,> 30 µM
CC(=O)OCC(=O)[C@@]1(O)CC[C@H]2[C@@H]3CCC4=CC(=O)CC[C@]4(C)C3=CC[C@@]21C [ANECORTAVE ACETATE],AC50,[1],> 10 µM
same,AC50,Mu-type opioid receptor,> 30 µM
same,AC50,Melanocortin receptor 4,> 10 µM
O=C(CCCN1CCC(n2c(O)nc3ccccc32)CC1)c1ccc(F)cc1 [BENPERIDOL],AC50,[4],> 30 µM
same,AC50,[5],20 µM
COc1cc(OC)c(C(=O)CCCN2CCCC2)c(OC)c1 [BUFLOMEDIL],AC50,Androgen receptor,> 30 µM
CS(=O)(=O)OCCCCOS(C)(=O)=O [BUSULFAN],AC50,[6],> 30 µM
same,AC50,[7],> 30 µM
same,AC50,[5],> 30 µM
CCCCCCNC(=O)n1cc(F)c(=O)[nH]c1=O [CARMOFUR],AC50,[1],> 30 µM
C=CC1=C(C(=O)O)N2C(=O)[C@@H](NC(=O)/C(=N\OCC(=O)O)c3csc(N)n3)[C@H]2SC1 [CEFIXIME],AC50,[6],> 30 µM
same,AC50,[7],> 30 µM
CO[C@@]1(NC(=O)Cc2cccs2)C(=O)N2C(C(=O)O)=C(COC(N)=O)CS[C@@H]21 [CEFOXITIN],AC50,[6],> 30 µM
same,AC50,[7],11 µM
same,AC50,[5],> 30 µM
CCN(CC)CCOC(=O)c1ccc(N)cc1Cl [CHLOROPROCAINE],AC50,[4],> 30 µM
same,AC50,[6],> 30 µM
same,AC50,[7],> 30 µM
same,AC50,[5],> 30 µM
CCC(C)(Oc1ccc(C2(c3ccc(OC(C)(CC)C(=O)O)cc3)CCCCC2)cc1)C(=O)O (configuration not stated) [CLINOFIBRATE],AC50,Androgen receptor,> 30 µM
COc1cccc2c1C(=O)c1c(O)c3c(c(O)c1C2=O)C[C@@](O)(C(C)=O)C[C@@H]3O[C@H]1C[C@H](N)[C@H](O)[C@H](C)O1 [DAUNORUBICIN],AC50,[6],> 30 µM
same,AC50,[7],> 10 µM
same,AC50,Mu-type opioid receptor,24 µM
N[C@H](Cc1cc(I)c(Oc2cc(I)c(O)c(I)c2)c(I)c1)C(=O)O [DEXTROTHYROXINE],AC50,D(1A) dopamine receptor,> 10 µM
same,AC50,[1],> 10 µM
same,AC50,[2],4.8 µM
same,AC50,[3],> 10 µM
same,AC50,Mu-type opioid receptor,> 30 µM
same,AC50,Histamine H2 receptor,> 10 µM
same,AC50,Melanocortin receptor 4,> 30 µM
COC(=O)N[C@@H](C)CNc1nccc(-c2cn(C(C)C)nc2-c2cc(Cl)cc(NS(C)(=O)=O)c2F)n1 [ENCORAFENIB],AC50,[1],> 30 µM
same,AC50,Androgen receptor,> 30 µM
same,AC50,Melanocortin receptor 4,> 30 µM
O=C(O)c1ccccc1OP(=O)(O)O [FOSFOSAL],AC50,[4],> 30 µM
same,AC50,[6],> 30 µM
same,AC50,[7],> 30 µM
same,AC50,[5],> 30 µM
Nc1ccn([C@@H]2O[C@H](CO)[C@@H](O)C2(F)F)c(=O)n1 [GEMCITABINE],AC50,[1],> 10 µM
same,AC50,Mu-type opioid receptor,> 30 µM
same,AC50,Melanocortin receptor 4,> 30 µM
CCCCCCOC(=O)CCC(=O)CN [HEXAMINOLEVULINATE],AC50,Androgen receptor,> 30 µM
CC(C)OC(=O)C(C(=O)OC(C)C)=C1SC=CS1 [MALOTILATE],AC50,Androgen receptor,> 30 µM
CC(=O)Nc1c(I)c(C(=O)N[C@H]2C(O)O[C@H](CO)[C@@H](O)[C@@H]2O)c(I)c(N(C)C(C)=O)c1I (some centres not stated) [METRIZAMIDE],AC50,[1],> 10 µM
same,AC50,Mu-type opioid receptor,> 30 µM
same,AC50,Melanocortin receptor 4,> 10 µM
O=C1CN=C(c2ccccc2)c2cc(Cl)ccc2N1 [NORDAZEPAM],AC50,D(1A) dopamine receptor,> 10 µM
same,AC50,[1],> 10 µM
same,AC50,[2],14 µM
same,AC50,[3],> 10 µM
same,AC50,Mu-type opioid receptor,> 10 µM
same,AC50,Histamine H2 receptor,> 10 µM
same,AC50,Melanocortin receptor 4,> 30 µM
CC(CCc1ccccc1)NC(C)C(O)c1ccc(O)cc1 (configuration not stated) [NYLIDRIN],AC50,D(1A) dopamine receptor,> 10 µM
same,AC50,[2],> 30 µM
same,AC50,[3],> 10 µM
same,AC50,Mu-type opioid receptor,9.9 µM
same,AC50,Histamine H2 receptor,> 10 µM
same,AC50,Melanocortin receptor 4,> 30 µM
CC(=O)O[C@H]1C[C@@H]2CC[C@@H]3[C@H](CC[C@@]4(C)[C@H]3C[C@H]([N+]3(C)CCCCC3)[C@@H]4OC(C)=O)[C@@]2(C)C[C@@H]1[N+]1(C)CCCCC1 [PANCURONIUM],AC50,[1],> 10 µM
same,AC50,Mu-type opioid receptor,> 30 µM
same,AC50,Melanocortin receptor 4,> 10 µM
CCn1cc(C(=O)O)c(=O)c2cc(F)c(N3CCN(C)CC3)cc21 [PEFLOXACIN],AC50,[6],> 30 µM
same,AC50,[7],> 30 µM
same,AC50,[5],> 30 µM
CC(=O)c1ccc2c(c1)N(CCCN1CCC(CCO)CC1)c1ccccc1S2 [PIPERACETAZINE],AC50,[1],0.18 µM
C[n+]1ccccc1/C=N/O [PRALIDOXIME],AC50,[5],> 30 µM
CCCNC(C)C(=O)Nc1ccccc1C (configuration not stated) [PRILOCAINE],AC50,[6],> 30 µM
same,AC50,[7],> 30 µM
same,AC50,[5],> 30 µM
CCN(CC)CC(=O)Oc1ccc(NC(C)=O)cc1 [PROPACETAMOL],AC50,Androgen receptor,> 30 µM
CCCOC(C(=O)OC1CCN(C)CC1)(c1ccccc1)c1ccccc1 [PROPIVERINE],AC50,Mu-type opioid receptor,0.75 µM
Cc1cc2nc3c(=O)[nH]c(=O)nc-3n(C[C@H](O)[C@H](O)[C@H](O)COP(=O)(O)O)c2cc1C [RIBOFLAVIN 5'-PHOSPHATE],AC50,Androgen receptor,> 3 µM
CC(NCCc1ccc(O)cc1)C(O)c1ccc(O)cc1 (configuration not stated) [RITODRINE],AC50,[1],10 µM and 1.54 µM
same,AC50,Mu-type opioid receptor,13 µM and 9.2 µM
same,AC50,Melanocortin receptor 4,> 10 µM
CC(C)CC(N(C)C)C1(c2ccc(Cl)cc2)CCC1 (configuration not stated) [SIBUTRAMINE],AC50,D(1A) dopamine receptor,> 10 µM
same,AC50,[2],> 30 µM
same,AC50,[3],> 10 µM
same,AC50,Mu-type opioid receptor,> 30 µM
same,AC50,Histamine H2 receptor,> 10 µM
same,AC50,Melanocortin receptor 4,> 30 µM
[H]/N=C(/N)N[C@H]1[C@H](O)[C@@H](O)[C@H](O[C@@H]2O[C@@H](C)[C@](O)(C=O)[C@H]2O[C@@H]2O[C@@H](CO)[C@H](O)[C@@H](O)[C@@H]2NC)[C@@H](N/C(N)=N\[H])[C@@H]1O [STREPTOMYCIN],AC50,D(1A) dopamine receptor,> 10 µM
same,AC50,[1],> 10 µM
same,AC50,[2],> 30 µM
same,AC50,[3],> 10 µM
same,AC50,Mu-type opioid receptor,> 10 µM
same,AC50,Histamine H2 receptor,> 10 µM
same,AC50,Melanocortin receptor 4,> 30 µM
Cc1cccc(N(C)C(=S)Oc2ccc3ccccc3c2)c1 [TOLNAFTATE],AC50,[1],> 30 µM
same,AC50,Mu-type opioid receptor,> 30 µM
same,AC50,Melanocortin receptor 4,> 10 µM
COc1cc2c(Nc3ccc(Br)cc3F)ncnc2cc1OCC1CCN(C)CC1 [VANDETANIB],AC50,[4],> 30 µM
same,AC50,[6],> 30 µM
same,AC50,[7],> 30 µM
same,AC50,[5],> 30 µM
COc1ccc(C(CN(C)C)C2(O)CCCCC2)cc1 (configuration not stated) [VENLAFAXINE],AC50,[3],> 10 µM
same,AC50,Mu-type opioid receptor,> 30 µM
same,AC50,Melanocortin receptor 4,> 30 µM
C=CC(N)CCC(=O)O (configuration not stated) [VIGABATRIN],AC50,[1],> 10 µM
same,AC50,Mu-type opioid receptor,> 30 µM
same,AC50,Melanocortin receptor 4,> 10 µM
